Earlier results, collected in US20230181552A1, “EXTERNAL PREPARATION OF IMIDACLOPRID, PREPARATION METHOD AND USE THEREOF” (Qingdao Bolin Biological Technology Co., Ltd., priority 2021, published 2023).

Columns and labels:
rabbits, mice and rats = conditions: sublethal doses, systemic use
[1] = tested on: nicotinic receptor sites of mammals; conditions: background statement
[2] = tested on: postsynaptic nicotinic acetylcholine receptors in the central nervous system of insects; conditions: background statement

O=[N+]([O-])NC1=NCCN1Cc1ccc(Cl)nc1 [Imidacloprid, imidacloprid]
pharmacological activity in mammals (rabbits, mice and rats): little pharmacological activity | affinity to nicotinic receptor sites of mammals [1]: weak affinity | affinity for postsynaptic nicotinic acetylcholine receptors in the central nervous system of insects [2]: high affinity
